{"source": "paper PMC3726336", "about": "“Product inhibition of cellulases studied with ^14C-labeled cellulose substrates” (Biotechnology for Biofuels, 2013)", "key": {"[1]": {"target": "T1, TrCel7A (Trichoderma reesei, UniProt P62694)", "T1 construct": "TrCel7A was purified from the culture filtrate of Tr QM 9414 as described previously; made in house; host or cells: Trichoderma reesei QM 9414 culture filtrate (native producer)", "T1 sequence (P62694 18-513)": "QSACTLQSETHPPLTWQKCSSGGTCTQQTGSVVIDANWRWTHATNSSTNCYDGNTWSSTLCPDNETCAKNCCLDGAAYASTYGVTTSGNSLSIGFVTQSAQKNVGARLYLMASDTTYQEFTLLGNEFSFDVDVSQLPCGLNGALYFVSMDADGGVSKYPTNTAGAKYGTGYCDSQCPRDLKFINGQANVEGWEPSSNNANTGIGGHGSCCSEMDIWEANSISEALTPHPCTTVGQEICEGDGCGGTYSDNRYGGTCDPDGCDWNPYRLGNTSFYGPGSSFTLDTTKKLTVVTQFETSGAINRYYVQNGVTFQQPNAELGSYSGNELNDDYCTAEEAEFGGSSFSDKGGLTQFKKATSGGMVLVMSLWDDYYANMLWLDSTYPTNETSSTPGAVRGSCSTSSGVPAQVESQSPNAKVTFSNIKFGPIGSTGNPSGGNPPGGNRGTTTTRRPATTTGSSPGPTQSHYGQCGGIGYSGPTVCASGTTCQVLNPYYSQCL", "assay": "Inhibition of synergistic hydrolysis of 14C-BC by TrCel7A (supplemented with EG TrCel5A)", "format": "biochemical", "conditions": "IC50 for cellobiose, 14C-BC substrate, average over time points", "method": "To study the cellobiose inhibition of GH7 CBHs, the synergistic hydrolysis of ^14C-BC in the presence of added cellobiose was followed (Figure 3, Additional file 1: Figures S1 and S2). Because the cellobiose inhibition of the EG TrCel5A is much weaker than that of GH7 CBHs, the inhibition of synergistic hydrolysis apparently reflects the inhibition of CBH. The strength of cellobiose inhibition was analyzed using plots of (DCB/DCB=0) versus [cellobiose], where DCB and DCB=0 represent the degree of conversion of ^14C-BC in the presence and absence of cellobiose, respectively (Figure 4, Additional file 1: Figure S3). […]\nwhere [CB] is the concentration of cellobiose; [^14CBC] is the concentration of ^14C-BC used in the experiment; and C1, C2 and H are empirical constants. Equation 5 differs from Equation 1 by the presence of constant H. H was included to improve the fit and is a constant that accounts for the background radioactivity (the degree of conversion that is independent of CBH). The degree of conversion resulting from the activity of the EG was measured in a separate experiment (Additional file 1: Figure S4) and was subtracted from the degree of conversion resulting from the synergistic hydrolysis. […] Provided with the values of C1, C2 and H, the value of IC50 was calculated as follows: […]"}, "[2]": {"target": "TaCel7A (Thermoascus aurantiacus, UniProt A7WNU2)", "sequence (A7WNU2 entry or part of it)": "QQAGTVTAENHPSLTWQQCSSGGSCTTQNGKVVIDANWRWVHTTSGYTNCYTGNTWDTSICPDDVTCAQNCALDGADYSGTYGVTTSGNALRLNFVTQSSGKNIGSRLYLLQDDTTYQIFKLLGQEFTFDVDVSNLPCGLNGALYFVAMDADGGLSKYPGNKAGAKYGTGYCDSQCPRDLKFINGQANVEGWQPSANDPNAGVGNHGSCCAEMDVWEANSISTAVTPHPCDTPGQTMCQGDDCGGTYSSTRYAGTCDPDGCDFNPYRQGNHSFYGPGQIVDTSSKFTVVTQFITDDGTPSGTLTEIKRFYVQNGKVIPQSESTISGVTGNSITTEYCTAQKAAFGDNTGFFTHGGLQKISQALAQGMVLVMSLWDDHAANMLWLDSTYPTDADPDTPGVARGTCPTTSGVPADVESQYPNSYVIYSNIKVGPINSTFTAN", "assay": "Cellobiose inhibition of MUL hydrolysis by TaCel7A", "format": "biochemical", "conditions": "MUL substrate (5 μM)", "text": "The cellobiose inhibition of GH7 CBHs is most often studied on low-Mw model substrates. However, it has been shown that the inhibition of CBHs acting on low-Mw substrates appears to be much stronger than that on cellulose substrates. The Ki values for cellobiose inhibition of GH7 CBHs measured on low-Mw substrates are in the micromolar range [44, 51, 52], whereas those measured on cellulose are in the low- to high-millimolar range [28, 31, 32]. […] Unfortunately, the inhibition of this enzyme on cellulose has not been studied. We also studied the cellobiose inhibition of GH7 CBHs acting on MUL. The initial rates of MUL hydrolysis measured in the presence and absence of added cellobiose were first analyzed according to Equation 1, and the IC50 values were found using Equation 2. […] The inhibition of MUL hydrolysis is attributable to the binding of cellobiose to the product sites (+1/+2) of TrCel7A [52]. […]\nFor the inhibition of enzyme acting on the low-Mw substrate, the initial rates of the hydrolysis of MUL in the presence and absence of added cellobiose were followed. […] Reactions were stopped by the addition of NH3 (final concentration 0.1 M), and the released 4-methylumbelliferone was quantified by fluorescence using excitation and emission wavelengths of 360 nm and 450 nm, respectively."}}, "data": [{"compound": "O=C[C@H](O)[C@@H](O)[C@H](O[C@@H]1O[C@H](CO)[C@@H](O)[C@H](O)[C@H]1O)[C@H](O)CO", "note": "[cellobiose, Cellobiose]", "values": [{"measurement": "IC50", "setting": "[1]; 35°C, IC50 increased with hydrolysis time", "value": "680 ± 240", "unit": "µM"}, {"measurement": "IC50", "setting": "[1]; 50°C", "value": "2610 ± 100", "unit": "µM"}, {"measurement": "Ki", "setting": "[2]; 35°C", "value": 176, "unit": "µM"}, {"measurement": "Ki", "setting": "[2]; 50°C", "value": 355, "unit": "µM"}]}]}
